The assay relates to nude mice, LX-1 lung xenograft intrarenal, tumor weight T/C. Put plainly: NCI In Vivo Anticancer Drug Screen. Data for tumor model Human Lung LX-1 Xenograft (intrarenal inoculation) in NU/NU Swiss (nude) mice. The conditions noted are these: endpoint: mean tumor weight change, higher = larger tumour. An outline of the steps: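 Activity was scored by measuring tumors in treated animals and in vehicle controls, then reporting the treated result as a fraction of the control result.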

Setting [1] is: dose: 75.0 mg/kg/injection, schedule: Q04DX003 (sc), vehicle: Klucel (hydroxypropylcellulose) (HPC).
The mark [2] stands for this setting: dose: 150.0 mg/kg/injection, schedule: Q04DX003 (sc), vehicle: Klucel (hydroxypropylcellulose) (HPC).
Where [3] appears, read: dose: 300.0 mg/kg/injection, schedule: Q04DX003 (sc), vehicle: Klucel (hydroxypropylcellulose) (HPC).
Where [4] appears, read: dose: 600.0 mg/kg/injection, schedule: Q04DX003 (sc), vehicle: Klucel (hydroxypropylcellulose) (HPC).
Where [5] appears, read: dose: 50.0 mg/kg/injection, schedule: Q01DX010 (sc), vehicle: water.
Where [6] appears, read: dose: 100.0 mg/kg/injection, schedule: Q01DX010 (sc), vehicle: water.
The mark [7] stands for this setting: dose: 200.0 mg/kg/injection, schedule: Q01DX010 (sc), vehicle: water.
Setting [8] is: dose: 12.0 mg/kg/injection, schedule: Q01DX010 (sc), vehicle: saline.
Where [9] appears, read: dose: 24.0 mg/kg/injection, schedule: Q01DX010 (sc), vehicle: saline.

“And” between values parts separate entries of the source, which are not always exact repeats. Equal values may be shown once. Results filed as inconclusive are left out.

On to `O=NN(CCCl)C(=O)NC1CCCCC1`, for which the T/C is, setting by setting: (dose: 4.0 mg/kg/injection, schedule: Q01DX010 (ip), vehicle: saline with Tween-80) 101 % of control; (dose: 8.0 mg/kg/injection, schedule: Q01DX010 (ip), vehicle: saline with Tween-80) 19 % of control; (dose: 8.0 mg/kg/injection, schedule: Q01DX010 (sc), vehicle: saline with Tween-80) 112 % of control; (dose: 8.0 mg/kg/injection, schedule: Q04DX003 (sc), vehicle: carboxymethylcellulose (CMC)) 64 % of control and 65 % of control; (dose: 12.5 mg/kg/injection, schedule: Q04DX003 (sc), vehicle: Klucel (hydroxypropylcellulose) (HPC)) 35 % of control; (dose: 13.33 mg/kg/injection, schedule: Q04DX003 (ip), vehicle: saline with Tween-80) 236 % of control. The T/C reads like this: (dose: 16.0 mg/kg/injection, schedule: Q01DX010 (ip), vehicle: saline with Tween-80) 11 % of control; (dose: 16.0 mg/kg/injection, schedule: Q01DX010 (sc), vehicle: saline with Tween-80) 79 % of control; (dose: 26.65 mg/kg/injection, schedule: Q04DX003 (ip), vehicle: saline with Tween-80) 152 % of control; (dose: 32.0 mg/kg/injection, schedule: Q01DX010 (sc), vehicle: saline with Tween-80) -16 % of control; (dose: 32.0 mg/kg/injection, schedule: Q04DX003 (sc), vehicle: carboxymethylcellulose (CMC)) 45 % of control and 52 % of control; (dose: 50.0 mg/kg/injection, schedule: Q04DX003 (sc), vehicle: Klucel (hydroxypropylcellulose) (HPC)) 119 % of control. Further, the T/C (dose: 53.33 mg/kg/injection, schedule: Q04DX003 (ip), vehicle: saline with Tween-80) was -38 % of control; the T/C (dose: 64.0 mg/kg/injection, schedule: Q04DX003 (sc), vehicle: carboxymethylcellulose (CMC)) is 10 % of control and 29 % of control.
For `CNC(=O)ON(C(C)=O)C(=O)NC`, the T/C is 109 % of control (dose: 12.5 mg/kg/injection, schedule: Q01DX010 (sc), vehicle: saline) and 102 % of control (dose: 25.0 mg/kg/injection, schedule: Q01DX010 (sc), vehicle: saline).
Consider `Nc1cc(Cl)c2[nH]cnc2n1`, for which the T/C is, setting by setting: (dose: 200.0 mg/kg/injection, schedule: Q04DX003 (sc), vehicle: water) 121 % of control; (dose: 400.0 mg/kg/injection, schedule: Q04DX003 (sc), vehicle: water) 94 % of control.
Consider `NC(=O)/C=C/c1c[nH]c2nccnc12`, for which, where the note is “dose: 50.0 mg/kg/injection, schedule: Q04DX003 (sc), vehicle: water”, the T/C is 86 % of control.
`C=Cc1cnc([N+](=O)[O-])n1C`: the T/C runs as follows: under setting [1], 106 % of control; under setting [2], 96 % of control; under setting [3], 98 % of control; under setting [4], 92 % of control.
For `CC(C)[C@](O)(C(=O)OCC1=CC[N+]2([O-])CC[C@@H](O)[C@@H]12)[C@H](C)O` (some centres not stated), the T/C was 59 % of control under setting [5]; 44 % of control under setting [6]; 58 % of control under setting [7]; 36 % of control (dose: 400.0 mg/kg/injection, schedule: Q01DX010 (sc), vehicle: water).
With `S=c1nc[nH]c2nc[nH]c12`, the T/C is 120 % of control (dose: 6.25 mg/kg/injection, schedule: Q01DX010 (sc), vehicle: Klucel (hydroxypropylcellulose) (HPC)); 51 % of control and 55 % of control (dose: 50.0 mg/kg/injection, schedule: Q01DX010 (sc), vehicle: Klucel (hydroxypropylcellulose) (HPC)).
Consider `CCc1ccc(C2=C(O)C(=O)C(c3ccc(CC)cc3)=C(O)C2=O)cc1`, for which the T/C is 83 % of control (dose: 100.0 mg/kg/injection, schedule: Q04DX003 (sc), vehicle: saline with Tween-80); 100 % of control (dose: 200.0 mg/kg/injection, schedule: Q04DX003 (sc), vehicle: saline with Tween-80); 64 % of control (dose: 400.0 mg/kg/injection, schedule: Q04DX003 (sc), vehicle: saline with Tween-80); 56 % of control (dose: 800.0 mg/kg/injection, schedule: Q04DX003 (sc), vehicle: saline with Tween-80).
Regarding `OCCOCCN1CCN(CCCN2c3ccccc3Sc3ccc(C(F)(F)F)cc32)CC1`, the T/C by setting is: (dose: 3.0 mg/kg/injection, schedule: Q01DX010 (sc), vehicle: saline) 81 % of control; under setting [8], 92 % of control and 111 % of control; under setting [9], 52 % of control.
`CCNC(=O)OCc1c(COC(=O)NCC)c(-c2ccc(Cl)c(Cl)c2)n2c1CCC2`: the T/C (dose: 100.0 mg/kg/injection, schedule: Q01DX010 (sc), vehicle: saline with Tween-80) is 26 % of control and 31 % of control; the T/C (dose: 200.0 mg/kg/injection, schedule: Q01DX010 (sc), vehicle: saline with Tween-80) was 95 % of control.
For the compound `CC1=C(C)C(=O)O[C@@H]([C@](C)(O)[C@]2(O)CC[C@@]3(O)[C@@H]4C[C@H]5O[C@]56CC=CC(=O)[C@]6(C)[C@H]4CC[C@]23C)C1`, the T/C is 112 % of control (dose: 150.0 mg/kg/injection, schedule: Q04DX003 (sc), vehicle: suspension in saline); 84 % of control (dose: 300.0 mg/kg/injection, schedule: Q04DX003 (sc), vehicle: suspension in saline); 46 % of control (dose: 600.0 mg/kg/injection, schedule: Q04DX003 (sc), vehicle: suspension in saline); 81 % of control (dose: 1200.0 mg/kg/injection, schedule: Q04DX003 (sc), vehicle: suspension in saline).
`O=C1C(=O)c2ccccc2C(O)=C1CC=C(Cl)Cl`: the T/C was 255 % of control (dose: 25.0 mg/kg/injection, schedule: Q01DX010 (sc), vehicle: water); 95 % of control under setting [5]; 117 % of control under setting [6]; 158 % of control under setting [7].
As for `CCCCNC(C)C1(O)Cc2c(O)c3c(c(O)c2C(OC2CC(N)C(O)C(C)O2)C1)C(=O)c1c(OC)cccc1C3=O` (configuration not stated), the T/C by setting is: (dose: 300.0 mg/kg/injection, schedule: Q04DX003 (sc), vehicle: water) 99 % of control; (dose: 600.0 mg/kg/injection, schedule: Q04DX003 (sc), vehicle: water) 84 % of control.
`Cc1c2cc[n+](C)cc2c(C)c2c1[nH]c1ccc(O)cc12`: the T/C (dose: 1.5 mg/kg/injection, schedule: Q04DX003 (sc), vehicle: water) is 151 % of control.
With `C/C=C/c1cc2n(c1)C(=O)c1cc(OC3OC(C)C(NC)C(C)(O)C3O)c(C)c(O)c1NC2O` (configuration not stated), the T/C by setting is: (dose: 50.0 micrograms/kg/injection, schedule: Q04DX003 (sc), vehicle: saline) 54 % of control; (dose: 200.0 micrograms/kg/injection, schedule: Q04DX003 (sc), vehicle: saline) 92 % of control; (dose: 400.0 micrograms/kg/injection, schedule: Q04DX003 (sc), vehicle: saline) 91 % of control.
For `NC1(C(=O)O)CCCC1`, the T/C under setting [8] was 94 % of control; the T/C under setting [9] was 66 % of control; the T/C (dose: 48.0 mg/kg/injection, schedule: Q01DX010 (sc), vehicle: saline) was 57 % of control; the T/C (dose: 50.0 mg/kg/injection, schedule: Q01DX010 (sc), vehicle: saline) is 32 % of control; the T/C (dose: 96.0 mg/kg/injection, schedule: Q01DX010 (sc), vehicle: saline) was 29 % of control.
On to `Cc1ccc(NCCN(C)C)c2c(=O)c3cc(O)ccc3sc12`, for which the T/C under setting [1] is 97 % of control, the T/C under setting [2] is 68 % of control, the T/C under setting [3] is 72 % of control and the T/C under setting [4] was 84 % of control.
`[I][Hg][CH2]C1OCCOC1[CH2][Hg][I]` (configuration not stated): the T/C was 88 % of control under setting [2]; 74 % of control under setting [3]; 79 % of control under setting [4]; 64 % of control (dose: 1200.0 mg/kg/injection, schedule: Q04DX003 (sc), vehicle: Klucel (hydroxypropylcellulose) (HPC)).
In the case of `NC(=O)c1[nH]nc(C2OC(CO)C(O)C2O)c1O` (configuration not stated), the T/C is 77 % of control (dose: 0.62 mg/kg/injection, schedule: Q04DX003 (sc), vehicle: saline); 65 % of control (dose: 1.25 mg/kg/injection, schedule: Q04DX003 (sc), vehicle: saline); 109 % of control (dose: 2.5 mg/kg/injection, schedule: Q04DX003 (sc), vehicle: saline); 78 % of control (dose: 5.0 mg/kg/injection, schedule: Q04DX003 (sc), vehicle: saline).
In the case of `C[C@]12CC[C@H]3[C@@H](CCC4=C[C@@H](OC5OCC(OC6OC(CO)C(O)C(O)C6O)C(O)C5O)CC[C@@]43C=O)[C@@]1(O)CCC2C1=CC(=O)OC1` (some centres not stated), the T/C reads like this: (dose: 7.5 mg/kg/injection, schedule: Q04DX003 (sc), vehicle: Klucel (hydroxypropylcellulose) (HPC)) 77 % of control; (dose: 30.0 mg/kg/injection, schedule: Q04DX003 (sc), vehicle: Klucel (hydroxypropylcellulose) (HPC)) 79 % of control; (dose: 60.0 mg/kg/injection, schedule: Q04DX003 (sc), vehicle: Klucel (hydroxypropylcellulose) (HPC)) 79 % of control.
